The EC50 is the concentration at which the effect is half-maximal.

Data on six compounds can be found in publication PMC4089508 (Bioorganic & medicinal chemistry, 2014).

Series [1] deals with SK-OV-3 MDR-1/M-6-6. Particulars: other colchicine site agents; cited from earlier work.
Series [2] concerns MCF-7. Nature of the series: Breast cancer/endothelial cell IC50, MCF-7. Particulars: Homo sapiens, MCF7, read-out: IC50, MCF-7. It is filed as cell-based.
In series [3] the test system is MDA-MB-231. Description: Breast cancer/endothelial cell IC50, MDA-MB-231. Type of series: cell-based. Particulars: Homo sapiens, MDA-MB-231, read-out: IC50, MDA-MB-231.
For series [4], the system named is MDA-MB-435. Description: Breast cancer/endothelial cell IC50, MDA-MB-435. It is filed as cell-based. Particulars: Homo sapiens, MDA-MB-435, read-out: IC50, MDA-MB-435.
Series [5] concerns HUVEC endothelial cells. Description: Breast cancer/endothelial cell IC50, HUVEC. Type of series: cell-based. Particulars: Homo sapiens, read-out: IC50, HUVEC.
In series [6] the test system is 4T-1. Description: Breast cancer/endothelial cell IC50, 4T-1. Type of series: cell-based, murine. Particulars: Mus musculus, 4T1, read-out: IC50, 4T-1.
Series [7] has as its system cellular microtubules in A-10 cells. Description: Loss of cellular microtubules, indirect immunofluorescence in A-10 cells. Type of series: cell-based.
Series [8] concerns HeLa cells. Nature of the series: Cell cycle analysis by flow cytometry. Particulars: 40 and 50 nM 11, 75 and 100 nM 21, 18 h. Type of series: cell-based.
For series [9], the system named is MDA-MB-435 cells. Description: Apoptosis detection, Western blot of cleaved PARP. It is filed as cell-based, human.
In series [10] the target is purified porcine brain tubulin (Sus scrofa, UniProt P02554). Description: In vitro tubulin polymerization. Particulars: 10 μM compound.
Series [11] deals with SK-OV-3 MDR-1/M-6-6. Description: cells. Particulars: Homo sapiens, SKOV3-MDR1-M6/6, read-out: Antiproliferative activity IC50, SK-OV-3 MDR-1/M-6-6.
Series [12] has as its system 4T1 orthotopic allograft. Description: 4T1 triple negative breast orthotopic allograft model. Particulars: 4T1 orthotopic model.
Series [13] has as its system MDA-MB-435 flank xenograft. Description: MDA-MB-435 flank xenograft model. Type of series: in vivo, NCr athymic nu/nu mice. Particulars: vs carrier treated mice.

Sequence of purified porcine brain tubulin (P02554 whole entry): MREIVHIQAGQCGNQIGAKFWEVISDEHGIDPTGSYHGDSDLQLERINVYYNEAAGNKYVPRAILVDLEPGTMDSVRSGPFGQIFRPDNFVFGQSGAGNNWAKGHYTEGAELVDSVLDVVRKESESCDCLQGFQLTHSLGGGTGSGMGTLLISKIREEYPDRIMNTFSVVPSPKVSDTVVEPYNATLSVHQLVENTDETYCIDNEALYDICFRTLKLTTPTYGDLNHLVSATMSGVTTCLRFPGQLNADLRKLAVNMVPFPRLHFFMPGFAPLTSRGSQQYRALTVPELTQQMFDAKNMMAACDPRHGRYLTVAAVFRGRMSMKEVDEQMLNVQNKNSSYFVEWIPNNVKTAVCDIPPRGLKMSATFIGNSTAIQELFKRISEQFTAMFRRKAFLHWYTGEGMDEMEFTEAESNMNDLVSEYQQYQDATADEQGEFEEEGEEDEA
Sequence of purified porcine brain tubulin (P02550 whole entry, further chain): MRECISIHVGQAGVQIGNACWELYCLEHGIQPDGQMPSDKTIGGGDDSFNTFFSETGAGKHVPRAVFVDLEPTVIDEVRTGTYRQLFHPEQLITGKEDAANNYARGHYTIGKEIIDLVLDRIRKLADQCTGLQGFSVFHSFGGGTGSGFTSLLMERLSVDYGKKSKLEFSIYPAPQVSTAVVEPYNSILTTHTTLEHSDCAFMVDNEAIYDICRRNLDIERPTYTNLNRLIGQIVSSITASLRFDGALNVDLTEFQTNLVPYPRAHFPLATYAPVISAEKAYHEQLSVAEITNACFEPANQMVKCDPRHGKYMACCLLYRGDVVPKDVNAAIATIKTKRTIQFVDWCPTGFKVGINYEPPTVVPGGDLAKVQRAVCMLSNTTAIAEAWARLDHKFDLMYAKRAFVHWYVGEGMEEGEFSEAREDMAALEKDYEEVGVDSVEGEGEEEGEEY

As for `COc1cc2c(cc1O)CC[C@@H]1[C@@H]2CC[C@]2(C)[C@@H](O)CC[C@@H]12` [2-methoxyestradiol], in series [1], the “Rr (relative resistance), Pgp-expressing SK-OV-3 pair” value was 1.5–2.6.
As for `COc1ccc(/C=C\c2cc(OC)c(OC)c(OC)c2)cc1O` [CA-4, combretastatin A-4], the IC50 in [2] was determined as 24.9 ± 1.4 nM; in series [3] it was 228 ± 2.9 nM; in [4], 52.2 nM; in [5], 17.7 ± 3.6 nM; in series [6] it was 69.6 ± 8 nM.
Consider `COc1ccc(Nc2nc(C)nc3oc(C)cc23)cc1` [Compound 10, N-(4-methoxyphenyl)-2,6-dimethylfuro[2,3-d]pyrimidin-4-amine], for which the “effect on cellular microtubules” value in [7] was “inactive”.
For the compound `COc1ccc(N(C)c2nc(C)nc3oc(C)cc23)cc1` [Compound 11, N-(4-methoxyphenyl)-N,2,6-trimethylfuro[2,3-d]pyrimidin-4-amine], in [8], the “effect on cell cycle distribution (G2/M)” value is reported as “initiated mitotic accumulation”. Moreover, the “cleaved PARP level” value in [9] (75 nM 11, 18 h) is reported as “slight increase in cleaved PARP”; in [9] (36 h, 75 nM 11, 120 nM 21), “much higher levels of cleaved PARP”. Besides, the “inhibition of polymerization of purified tubulin” value in [10] is listed as “almost completely inhibited the polymerization of tubulin”.
As for `CCCCN(c1ccc(OC)cc1)c1nc(C)nc2oc(C)cc12` [Compound 14, N-butyl-N-(4-methoxyphenyl)-2,6-dimethylfuro[2,3-d]pyrimidin-4-amine], in series [11], the IC50 is greater than 10000 nM.
Regarding `COc1ccc(N(C)c2nc(C)nc3oc(C)cc23)cc1.Cl` [Compound 21, N-(4-methoxyphenyl)-N,2,6-trimethylfuro[2,3-d]pyrimidin-4-amine hydrochloride], the animal weight loss entry in series [12] is given as “less weight loss than docetaxel”. In addition, the primary tumor growth entry in series [12] (21 twice weekly at MTD) is on record as “as active as docetaxel at reducing primary tumor growth”. For the same compound, the lung metastases result in [12] (compared to docetaxel) was “reduced the size (Figure 9D; metastases at arrows) but not the number”. Besides, in series [8], the “effect on cell cycle distribution (G2/M)” value is reported as “initiated dose-dependent mitotic accumulation”. Also, in series [7], the “effect on cellular microtubules” value is given as “dose-dependent loss of cellular microtubules”. Further, the concentration giving a half-maximal response (EC50) in series [7] (read-out: EC50 for microtubule depolymerization, 18 h, 50% loss of cellular microtubules) was 570 nM. The “inhibition of polymerization of purified tubulin” value in series [10] is “almost completely inhibited the polymerization of tubulin”. Further, in series [13], the “tumor vascular density (CD31/PECAM-1 staining)” value is “decreased tumor vascular density”.
